The text below walks through data of patent US9551711B2, “Compositions and methods for detecting nitration of PKG-1α and methods of use thereof” (Augusta University Research Institute, Inc., priority 2013, dated 2017).

Changes are numbered by the printed parent chain.

The target in assay [1] is T1, PKG-1α (Homo sapiens, UniProt Q13976, Y247F).
T1 sequence (Q13976 2-671 Y247F): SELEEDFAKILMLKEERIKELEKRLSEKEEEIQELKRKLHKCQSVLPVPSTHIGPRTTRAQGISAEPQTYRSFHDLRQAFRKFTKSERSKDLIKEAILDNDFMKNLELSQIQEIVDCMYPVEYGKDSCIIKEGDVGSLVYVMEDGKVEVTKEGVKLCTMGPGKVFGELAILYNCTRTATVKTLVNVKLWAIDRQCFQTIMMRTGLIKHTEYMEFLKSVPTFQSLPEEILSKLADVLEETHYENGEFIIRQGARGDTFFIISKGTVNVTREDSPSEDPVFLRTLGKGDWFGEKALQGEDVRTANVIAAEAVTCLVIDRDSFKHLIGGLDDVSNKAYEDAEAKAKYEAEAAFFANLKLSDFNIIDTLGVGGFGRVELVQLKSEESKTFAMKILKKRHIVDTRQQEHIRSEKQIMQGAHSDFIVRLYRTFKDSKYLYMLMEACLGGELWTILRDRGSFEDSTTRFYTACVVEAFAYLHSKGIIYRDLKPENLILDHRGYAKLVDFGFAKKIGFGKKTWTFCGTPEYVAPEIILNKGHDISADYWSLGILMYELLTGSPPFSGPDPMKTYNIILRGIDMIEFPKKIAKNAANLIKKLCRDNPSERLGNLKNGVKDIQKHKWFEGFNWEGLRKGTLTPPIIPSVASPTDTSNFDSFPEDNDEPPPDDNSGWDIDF
The assay is described as follows: PKG activity in transfected HEK-293T cells. The class given is cell-based. The arrangement: made in house; host or cells: HEK-293T. Particulars: HEK-293T expressing Y247F-PKG-1α; SIN-1 500 μM, 30 min. As to the method:
(§1) To determine the role of tyrosine 247 and tyrosine 425 in mediating the nitration dependent inhibition of PKG-1α kinase activity, Y247F- and Y425F-PKG-1α mutants were generated and expressed in HEK-293T cells. HEK-293T cells were transiently transfected with expression plasmids containing WT-, Y247F-, or Y425F-PKG-1α for 48 h. […] Protein extracts were immunoprecipitated using an antibody raised against PKG-1α and the level of nitrated PKG-1α determined by probing the membranes with an antiserum raised against 3-NT. The blots were then stripped and re-probed for PKG-1α to normalize for the efficiency of the immunoprecipitation.
(§2) Total PKG activity was determined using a non-radioactive immunoassay in cell lysates, according to the manufacturer's directions. […]
(§3) After incubation for 30 min at 30° C. to allow the phosphorylation of the bound substrate, an HRP conjugated anti-phosphothreonine specific antibody was added to convert a chromogenic substrate to a colorimetric substrate that was subsequently read spectrophotometrically at 450 nm. The change in absorbance reflected the relative activity of PKG in the sample. […] The kinetic constants were determined using nonlinear regression (curve fit) analysis (GraphPad Prism Software Inc.).

Assay [2] deals with T2, PKG-1α (Homo sapiens, UniProt Q13976).
T2 sequence (Q13976 2-671): T1 sequence (Q13976 2-671 Y247F) with F246Y
The assay is described as follows: PKG activity in transfected HEK-293T cells. The class given is cell-based. The arrangement: an expression plasmid containing a full length WT-PKG-1α cDNA; made in house; host or cells: HEK-293T. The following applies: HEK-293T expressing WT-PKG-1α; SIN-1 500 μM, 30 min. As to the method:
as §1, §2, §3

With “3-morpholinosydnonimine N-ethylcarbamide [SIN-1]”, the results for the “cGMP dependent PKG activity” value on PKG-1α [1] and at PKG-1α [2] were “unaffected” and “attenuated”, respectively.
